Measured values from PubChem BioAssay (NCI).
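Cells were grown in 96-well plates and exposed to each compound for 48 hours at five concentrations; endpoints were interpolated linearly between bracketing concentrations, or set to the highest concentration if not reached. TGI: total growth inhibition.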

Key:
Experiment in all cases: NCI tumour cell line growth inhibition, 48 h
[1] = system: MALME-3M melanoma
[2] = system: UACC-257 melanoma
[3] = system: SNB-19 CNS
[4] = system: TK-10 renal
[5] = system: HCC-2998 colon
[6] = system: EKVX NSCLC
[7] = system: M14 melanoma
[8] = system: DU-145 prostate
[9] = system: 786-0 renal
[10] = system: BT-549 breast
[11] = system: SW-620 colon
[12] = system: KM12 colon
[13] = system: UO-31 renal
[14] = system: SK-OV-3 ovarian
[15] = system: T-47D breast
[16] = system: U251 CNS
[17] = system: NCI/ADR-RES ovarian
[18] = system: OVCAR-5 ovarian
[19] = system: RXF 393 renal
[20] = system: SK-MEL-2 melanoma

| Structure (SMILES) | TGI [1] [µM] | TGI [2] [µM] | TGI [3] [µM] | TGI [4] [µM] | TGI [5] [µM] | TGI [6] [µM] | TGI [7] [µM] | TGI [8] [µM] | TGI [9] [µM] | TGI [10] [µM] | TGI [11] [µM] | TGI [12] [µM] | TGI [13] [µM] | TGI [14] [µM] | TGI [15] [µM] | TGI [16] [µM] | TGI [17] [µM] | TGI [18] [µM] | TGI [19] [µM] | TGI [20] [µM] |
| --- | --- | --- | --- | --- | --- | --- | --- | --- | --- | --- | --- | --- | --- | --- | --- | --- | --- | --- | --- | --- |
| Cc1nn(C(=O)Cc2ccccc2)c2c1C(c1ccc(O)cc1O)SC(N)=N2 (stereo not drawn) | > 100 | > 100 | > 100 | > 100 | > 100 | > 100 | > 100 | > 100 | > 100 | > 100 | > 100 | > 100 | > 100 | > 100 | > 100 | – | – | – | – | – |
| CC(=O)O[C@H]1[C@@H]2OC(=O)[C@@](O)(CC3CCCO3)[C@@H]2CC(=O)[C@](C)(O)CC/C=C(\C)CCC[C@@H]1C (stereo partly drawn) | > 100 | > 100 | > 100 | > 100 | > 100 | > 100 | > 100 | > 100 | > 100 | 70.4 | 49.2 | > 100 | > 100 | – | > 100 | > 100 | > 100 | > 100 | 35.9 | > 100 |
| O=C1NCc2ccccc2S(=O)(=O)n2cccc21 | > 100 | > 100 | > 100 | > 100 | > 100 | > 100 | > 100 | > 100 | > 100 | > 100 | > 100 | > 100 | > 100 | > 100 | > 100 | > 100 | > 100 | > 100 | – | > 100 |
| CN(C)CCNC(=O)c1cc([N+](=O)[O-])cc2c1Oc1ccccc1O2 | 97.9 | > 100 | – | > 100 | 24.1 | > 100 | > 100 | > 100 | > 100 | > 100 | > 100 | > 100 | 33.2 | – | 69.6 | > 100 | > 100 | > 100 | 93.7 | 56.3 |
| O=c1ccn([C@@H]2C[C@@H]2CO)c(=O)[nH]1 | > 100 | > 100 | > 100 | > 100 | > 100 | > 100 | > 100 | > 100 | > 100 | > 100 | > 100 | > 100 | > 100 | – | > 100 | > 100 | > 100 | > 100 | > 100 | > 100 |
| O=C1CSC(c2ccc([N+](=O)[O-])cc2)N1c1ccc(-n2c(-c3ccccc3)nc3ccccc3c2=O)cc1 (stereo not drawn) | > 100 | > 100 | > 100 | > 100 | > 100 | > 100 | > 100 | > 100 | > 100 | > 100 | > 100 | > 100 | 29.3 | > 100 | > 100 | > 100 | > 100 | – | – | > 100 |
| O=C(c1ccc(Cl)cc1)N(C(=O)N1CCC(c2ccccc2)CC1)c1ccccc1 | 84.6 | 83 | > 100 | > 100 | – | 69 | 88.2 | > 100 | > 100 | 73.6 | > 100 | 44.6 | 98.7 | > 100 | 49.3 | > 100 | > 100 | 57.3 | 62.5 | > 100 |
| COc1ccc(-n2cnc3c2NC(C)(C)N=C3C(N)=O)c(OC)c1 | > 100 | > 100 | > 100 | > 100 | > 100 | > 100 | > 100 | > 100 | > 100 | – | > 100 | > 100 | – | > 100 | > 100 | > 100 | > 100 | > 100 | > 100 | – |
| Cn1c(O)c(C=Nc2ccccc2[N+](=O)[O-])c(=O)n(C)c1=O | > 100 | > 100 | > 100 | > 100 | > 100 | > 100 | > 100 | – | > 100 | > 100 | > 100 | > 100 | > 100 | > 100 | > 100 | > 100 | > 100 | > 100 | > 100 | > 100 |
| CCN(CC)/C(Sc1ccccc1)=C(\C(Cl)=C(Cl)Cl)[N+](=O)[O-] | 39.9 | 44.5 | 49.9 | 31.3 | 34.3 | 34.7 | 37.5 | 34.9 | 37.5 | 38.1 | 40.3 | 36.3 | 28.9 | 73.1 | 42 | – | > 100 | – | 36.8 | – |
| CC1=NN(c2nc(N)nc(CSc3nc4n(c(=S)n3)CCN4)n2)C(C)(C)C1 | – | > 100 | > 100 | > 100 | > 100 | > 100 | > 100 | – | > 100 | > 100 | > 100 | > 100 | – | 71.6 | 54.1 | > 100 | > 100 | – | 38.7 | 62.6 |
| O=C(CCCN1CCC2(CC1)CC(=O)N(N1CCCCCC1)C2=O)c1ccccc1 | > 100 | > 100 | > 100 | > 100 | – | > 100 | > 100 | > 100 | > 100 | > 100 | – | – | > 100 | > 100 | > 100 | > 100 | > 100 | > 100 | > 100 | > 100 |
| O=c1c2nc3ccccc3c(=O)n2ncn1-c1ccccc1Cl | > 100 | > 100 | > 100 | > 100 | > 100 | > 100 | > 100 | > 100 | > 100 | > 100 | > 100 | > 100 | > 100 | > 100 | > 100 | > 100 | – | > 100 | – | > 100 |
| CCOP(=O)(OCC)C(Nc1ccc(Br)cc1)c1cccc([N+](=O)[O-])c1 (stereo not drawn) | 37.9 | – | 47.6 | 88.1 | 32.4 | 10.8 | 37 | > 100 | 44.8 | – | 35.4 | 32.1 | 22.7 | 41.5 | 37.1 | 36.1 | 44.8 | 67.6 | 31.5 | 31.4 |
| COc1cc(OC)nc(-n2c(N)c(C#N)c3ccc([N+](=O)[O-])cc3c2=O)n1 | – | > 100 | > 100 | > 100 | > 100 | > 100 | > 100 | > 100 | > 100 | > 100 | > 100 | > 100 | > 100 | – | > 100 | > 100 | > 100 | > 100 | – | > 100 |
| CN(C)C(=S)/N=c1\ssc(=S)n1Cc1cccnc1 | > 100 | > 95.5 | > 100 | > 100 | > 100 | > 100 | 59.2 | > 64.3 | > 100 | – | > 53.2 | 36.2 | > 100 | > 81.1 | > 100 | > 94.9 | 4.51 | > 100 | 17.8 | > 35.8 |
| COc1cc(CO)c(CC(=O)NCCCc2ccccc2)cc1OC | > 100 | > 100 | > 100 | > 100 | > 100 | > 100 | > 100 | > 100 | > 100 | > 100 | > 100 | > 100 | > 100 | – | > 100 | > 100 | > 100 | > 100 | – | > 100 |
| CCOC(=O)c1nc2ccccc2nc1NCc1cc(OC)c(OC)c(OC)c1 | > 100 | > 100 | – | > 100 | > 100 | > 100 | – | > 100 | > 100 | > 100 | > 100 | > 100 | > 100 | > 100 | > 100 | > 100 | 47.8 | > 100 | > 100 | – |
| CC(C)(C)OC(=O)N1CCC(C(=O)O)CC1 | > 100 | > 100 | > 100 | > 100 | > 100 | > 100 | > 100 | > 100 | > 100 | > 100 | > 100 | > 100 | > 100 | – | > 100 | > 100 | > 100 | > 100 | – | > 100 |
| CCOC(=O)Cn1c(=O)c2nc(SC)sc2n(CC)c1=S | > 100 | > 100 | > 100 | > 100 | > 100 | – | 17.4 | > 100 | 0.32 | – | > 100 | > 100 | 28.8 | > 100 | > 100 | > 100 | > 100 | > 100 | > 100 | > 100 |
| CC(C)OCC1CC(CC(=O)Nc2nncs2)C(=O)O1 (stereo not drawn) | – | > 100 | > 100 | > 100 | > 100 | > 100 | > 100 | > 100 | > 100 | > 100 | > 100 | > 100 | > 100 | > 100 | > 100 | > 100 | > 100 | > 100 | – | > 100 |
| COc1ccc(CC(=O)N2CCC3(C)CC(=O)CC=C23)cc1OC (stereo not drawn) | > 100 | – | > 100 | – | – | > 100 | > 100 | > 100 | > 100 | > 100 | > 100 | > 100 | > 100 | > 100 | > 100 | > 100 | > 100 | > 100 | > 100 | > 100 |
| C=CCc1cccc2cc(C(=O)Nc3ccccc3)c(=N)oc12 | 58.7 | > 100 | > 100 | – | 18.4 | – | > 100 | > 100 | > 100 | > 100 | > 100 | > 100 | – | > 100 | 85.7 | > 100 | > 100 | > 100 | > 100 | 38.5 |
| Cc1ccc(N(C(=O)Nc2ccccc2)C2=NCC(C)S2)cc1C (stereo not drawn) | 40.7 | > 10 | > 100 | 55.2 | > 10 | 72.1 | 28.4 | > 100 | 46.6 | – | 62.9 | 40.5 | 80.7 | > 100 | > 100 | 51.3 | 52.4 | 73.5 | – | 32.2 |
| CN1CCN(c2ncc3c(n2)sc2c(=O)n(-c4ccccc4)cnc23)CC1 | > 100 | > 100 | > 100 | > 100 | > 100 | – | > 100 | > 100 | > 100 | > 100 | > 100 | > 100 | > 100 | > 100 | > 100 | > 100 | > 100 | > 100 | > 100 | > 100 |
| Cc1cn(C2CC(O)C(COC(=O)NCCC(F)(F)C(F)(F)C(F)(F)C(F)(F)F)O2)c(=O)[nH]c1=O (stereo not drawn) | > 100 | > 100 | > 100 | > 100 | > 100 | > 100 | > 100 | > 100 | > 100 | > 100 | > 100 | > 100 | > 100 | > 100 | > 100 | > 100 | – | > 100 | > 100 | – |
